Source: publication PMC8286840, “Identifying SARS-CoV-2 antiviral compounds by screening for small molecule inhibitors of Nsp3 papain-like protease” (Biochemical Journal, 2021)
Where a name gives a salt, the structure may show the parent alone. Read-outs that look alike come from different tables or passages of the source.

Assays:
[1] = molecular target: T1, SARS-CoV-2 PLpro (nsp3 1564–1878) (Severe acute respiratory syndrome coronavirus 2, UniProt P0DTD1); assay: biochemical; set-up: FRET-quenched peptide (Pro3) cleavage by PLpro, 10 min pre-incubation, slope over 20 min, normalised to no-compound control; settings: high concentration screen, read-out: % of control remaining
[2] = molecular target: T1, SARS-CoV-2 PLpro (nsp3 1564–1878); assay: biochemical; set-up: FRET-quenched peptide (Pro3) cleavage by PLpro, 10 min pre-incubation, slope over 20 min, normalised to no-compound control; settings: low concentration screen, read-out: % of control remaining

C[C@]12CC[C@@H]3c4ccc(O)cc4CC[C@H]3[C@@H]1CCC2=O [Estrone]
remaining activity at 3.75 µM ([1]; Well no.=559): 98.9%
remaining activity at 3.75 µM ([1]; Well no.=2038): 104%
remaining activity at 3.75 µM ([1]; Well no.=6445): 96%
remaining activity at 1.25 µM ([2]; Well no.=559): 101%
remaining activity at 1.25 µM ([2]; Well no.=2038): 103%
remaining activity at 1.25 µM ([2]; Well no.=6445): 102%

CCOC(=O)c1cnc2c(cnn2CC)c1NN=C(C)C [Etazolate hydrochloride]
remaining activity at 3.75 µM ([1]; Well no.=550): 103%
remaining activity at 1.25 µM ([2]; Well no.=550): 101%

CCOC(=O)c1cnc2c(cnn2CC)c1NN=C(C)C [Etazolate]
remaining activity at 3.75 µM ([1]; Well no.=2144): 97.1%
remaining activity at 1.25 µM ([2]; Well no.=2144): 93.8%

C=C(CC)C(=O)c1ccc(OCC(=O)O)c(Cl)c1Cl [Ethacrynic Acid]
remaining activity at 3.75 µM ([1]; Well no.=1865): 94.6%
remaining activity at 1.25 µM ([2]; Well no.=1865): 95.6%

CC[C@@H](CO)NCCN[C@@H](CC)CO [Ethambutol HCl]
remaining activity at 3.75 µM ([1]; Well no.=5072): 100%
remaining activity at 1.25 µM ([2]; Well no.=5072): 99.5%

O=S(=O)(O)c1cc(O)ccc1O [Ethamsylate]
remaining activity at 3.75 µM ([1]; Well no.=6763): 89.6%
remaining activity at 1.25 µM ([2]; Well no.=6763): 103%

C#C[C@]1(O)CC[C@H]2[C@@H]3CCc4cc(O)ccc4[C@H]3CC[C@@]21C [Ethinyl Estradiol]
remaining activity at 3.75 µM ([1]; Well no.=5333): 98.6%
remaining activity at 1.25 µM ([2]; Well no.=5333): 98.9%

CCc1cc(C(N)=S)ccn1 [Ethionamide]
remaining activity at 3.75 µM ([1]; Well no.=5347): 95.4%
remaining activity at 1.25 µM ([2]; Well no.=5347): 96.4%

C#C[C@]1(O)CC[C@H]2[C@@H]3CCC4=CC(=O)CC[C@]4(C)[C@H]3CC[C@@]21C [Ethisterone]
remaining activity at 3.75 µM ([1]; Well no.=2030): 101%
remaining activity at 1.25 µM ([2]; Well no.=2030): 101%

CCC1(C)CC(=O)NC1=O (stereo not shown) [Ethosuximide]
remaining activity at 3.75 µM ([1]; Well no.=653): 97.7%
remaining activity at 1.25 µM ([2]; Well no.=653): 96.4%

CCOc1ccc2c(c1)C(C)=CC(C)(C)N2 [Ethoxyquin]
remaining activity at 3.75 µM ([1]; Well no.=4145): 96.9%
remaining activity at 1.25 µM ([2]; Well no.=4145): 93.7%

CCC(C(=O)O)C(=O)O [Ethylmalonic acid]
remaining activity at 3.75 µM ([1]; Well no.=6875): 93.4%
remaining activity at 1.25 µM ([2]; Well no.=6875): 94.5%

C#C[C@]1(OC(C)=O)CC[C@H]2[C@@H]3CCC4=C[C@@H](OC(C)=O)CC[C@@H]4[C@H]3CC[C@@]21C [Ethynodiol diacetate]
remaining activity at 3.75 µM ([1]; Well no.=5373): 92.2%
remaining activity at 1.25 µM ([2]; Well no.=5373): 92.3%

C#C[C@]1(O)CC[C@H]2[C@@H]3CCc4cc(O)ccc4[C@H]3CC[C@@]21C [Ethynyl Estradiol]
remaining activity at 3.75 µM ([1]; Well no.=6487): 102%
remaining activity at 1.25 µM ([2]; Well no.=6487): 103%

CC(O)(P(=O)(O)O)P(=O)(O)O [Etidronate]
remaining activity at 3.75 µM ([1]; Well no.=2068): 97.5%
remaining activity at 3.75 µM ([1]; Well no.=8826): 87.6%
remaining activity at 1.25 µM ([2]; Well no.=2068): 96.4%
remaining activity at 1.25 µM ([2]; Well no.=8826): 85.3%

CCNC1=Nc2ccc(Cl)cc2C(C)(c2ccccc2)O1 (stereo not shown) [Etifoxine hydrochloride]
remaining activity at 3.75 µM ([1]; Well no.=6081): 104%
remaining activity at 1.25 µM ([2]; Well no.=6081): 106%

CCc1cccc2c3c([nH]c12)C(CC)(CC(=O)O)OCC3 (stereo not shown) [Etodolac]
remaining activity at 3.75 µM ([1]; Well no.=740): 97.9%
remaining activity at 1.25 µM ([2]; Well no.=740): 95.3%

CCOC(=O)c1cncn1[C@H](C)c1ccccc1 [Etomidate]
remaining activity at 3.75 µM ([1]; Well no.=5187): 101%
remaining activity at 1.25 µM ([2]; Well no.=5187): 100%

COc1cc([C@@H]2c3cc4c(cc3[C@@H](O[C@@H]3O[C@@H]5CO[C@@H](C)O[C@H]5[C@H](O)[C@H]3O)[C@H]3COC(=O)[C@H]23)OCO4)cc(OC)c1O [Etoposide]
remaining activity at 3.75 µM ([1]; Well no.=454): 97.1%
remaining activity at 3.75 µM ([1]; Well no.=1670): 99.3%
remaining activity at 3.75 µM ([1]; Well no.=3279): 102%
remaining activity at 3.75 µM ([1]; Well no.=6154): 103%
remaining activity at 1.25 µM ([2]; Well no.=454): 103%
remaining activity at 1.25 µM ([2]; Well no.=1670): 99.8%
remaining activity at 1.25 µM ([2]; Well no.=6154): 102%

Cc1ccc(-c2ncc(Cl)cc2-c2ccc(S(C)(=O)=O)cc2)cn1 [Etoricoxib]
remaining activity at 3.75 µM ([1]; Well no.=1925): 106%
remaining activity at 1.25 µM ([2]; Well no.=1925): 106%

CCOC(=O)/C=C(C)/C=C/C=C(C)/C=C/c1c(C)cc(OC)c(C)c1C [Etretinate]
remaining activity at 3.75 µM ([1]; Well no.=2070): 101%
remaining activity at 1.25 µM ([2]; Well no.=2070): 102%

CC12CCC(CC1)C(C)(C)O2 [Eucalyptol]
remaining activity at 3.75 µM ([1]; Well no.=6874): 99.2%
remaining activity at 1.25 µM ([2]; Well no.=6874): 99.2%

COc1ccc([C@@H]2OC[C@@H]3[C@H]2CO[C@H]3c2ccc(OC)c(OC)c2)cc1OC [Eudesmine]
remaining activity at 3.75 µM ([1]; Well no.=3117): 88.7%
remaining activity at 1.25 µM ([2]; Well no.=3117): 95.1%

C=CCc1ccc(O)c(OC)c1 [Eugenol]
remaining activity at 3.75 µM ([1]; Well no.=4005): 96.7%
remaining activity at 1.25 µM ([2]; Well no.=4005): 92.8%

CC(=O)O[C@H]1[C@H]2[C@@H](OC(=O)Cc3ccccc3)[C@@H](C)C[C@]2(OC(C)=O)C(=O)/C(C)=C/[C@@H]2[C@H](CC[C@@]13CO3)C2(C)C [Euphorbiasteroid]
remaining activity at 3.75 µM ([1]; Well no.=3605): 109%
remaining activity at 1.25 µM ([2]; Well no.=3605): 103%

Cc1cc(C)c2c(c1)[C@@H](N(Cc1cc(C(F)(F)F)cc(C(F)(F)F)c1)c1nnn(C)n1)CCCN2C[C@H]1CC[C@H](C(=O)O)CC1 [Evacetrapib (LY2484595)]
remaining activity at 3.75 µM ([1]; Well no.=5320): 100%
remaining activity at 1.25 µM ([2]; Well no.=5320): 96.7%

Cc1cc(-c2ccc(/N=N/c3ccc4c(S(=O)(=O)O)cc(S(=O)(=O)O)c(N)c4c3O)c(C)c2)ccc1/N=N/c1ccc2c(S(=O)(=O)O)cc(S(=O)(=O)O)c(N)c2c1O [Evans Blue]
remaining activity at 3.75 µM ([1]; Well no.=8652): 92.3%
remaining activity at 1.25 µM ([2]; Well no.=8652): 99.2%

CO[C@H]1C[C@@H]2CC[C@@H](C)[C@@](O)(O2)C(=O)C(=O)N2CCCC[C@H]2C(=O)O[C@H]([C@H](C)C[C@@H]2CC[C@@H](OCCO)[C@H](OC)C2)CC(=O)[C@H](C)/C=C(\C)[C@@H](O)[C@@H](OC)C(=O)[C@H](C)C[C@H](C)/C=C/C=C/C=C/1C [Everolimus]
remaining activity at 3.75 µM ([1]; Well no.=8740): 87.3%
remaining activity at 1.25 µM ([2]; Well no.=8740): 90.8%

C=C1C[C@@H]2[C@H](CC[C@]3(C)C(=O)CC[C@@H]23)[C@@]2(C)C=CC(=O)C=C12 [Exemestane]
remaining activity at 3.75 µM ([1]; Well no.=1623): 102%
remaining activity at 1.25 µM ([2]; Well no.=1623): 104%

CCOC(=O)[C@@H](N)CCC(=O)N[C@@H](CSCc1ccccc1)C(=O)N[C@@H](C(=O)OCC)c1ccccc1 [Ezatiostat]
remaining activity at 3.75 µM ([1]; Well no.=8366): 90.3%
remaining activity at 1.25 µM ([2]; Well no.=8366): 91%

O=C1[C@H](CC[C@H](O)c2ccc(F)cc2)[C@@H](c2ccc(O)cc2)N1c1ccc(F)cc1 [Ezetimibe]
remaining activity at 3.75 µM ([1]; Well no.=8428): 89.1%
remaining activity at 1.25 µM ([2]; Well no.=8428): 91.6%
